This is an account of results in ChEMBL document CHEMBL1777719, “Norcantharidin analogues with nematocidal activity in Haemonchus contortus” (Bioorg Med Chem Lett, 2011).

Calls of active or inactive are those of the source. The calls are words filed in the database; no cut-off is given here.

Data set [1] relates to Haemonchus contortus. Kind of data set: Nematocidal activity against Haemonchus contortus Haecon 5 strain isolated from helminth-free Merino weaner sheep after 6 days by larval development assay. The data set is classed as functional. The conditions noted are these: for LC50: Haemonchus contortus, Haecon 5 strain, 144 h, read-out: LD50 (the source's name).
The nature of data set [2]: Cytotoxicity against human HT-29 cells after 72 hrs by MTT assay. The data set is classed as cell-based.
The nature of data set [3]: Cytotoxicity against human SW480 cells after 72 hrs by MTT assay. The data set is classed as cell-based.
Data set [4] can be described thus: Cytotoxicity against human MCF7 cells after 72 hrs by MTT assay. The data set is classed as cell-based.
Data set [5] can be described thus: Cytotoxicity against human A2780 cells after 72 hrs by MTT assay. The data set is classed as cell-based.
Data set [6] is described as follows: Cytotoxicity against human H460 cells after 72 hrs by MTT assay. The data set is classed as cell-based. The conditions noted are these: NCI-H460 cells.
A short description of data set [7]: Cytotoxicity against human A431 cells after 72 hrs by MTT assay. The data set is classed as cell-based, A-431.
A short description of data set [8]: Cytotoxicity against human DU145 cells after 72 hrs by MTT assay. The data set is classed as cell-based, DU-145.
Data set [9] is described as follows: Cytotoxicity against human BE(2)-C cells after 72 hrs by MTT assay. The data set is classed as cell-based.
Data set [10] can be described thus: Cytotoxicity against human SJ-G2 cells after 72 hrs by MTT assay. The data set is classed as cell-based.
The test system of data set [11] is Haemonchus contortus. Kind of data set: Nematocidal activity against Haemonchus contortus Haecon 5 strain isolated from helminth-free Merino weaner sheep at 12.5 to 100 uM after 6 days by larval development assay. The data set is classed as functional, organism-based.

Regarding `N#C/C(=C\c1ccc[nH]1)c1ccc(Cl)cc1`, in the data set with Haemonchus contortus [1], the LD99 was determined as 25 µM and the LC50 amounted to 10 µM.

As for `N#C/C(=C\c1ccc[nH]1)c1ccc(F)cc1`, in the data set on Haemonchus contortus [1], the LD99 stood at 50 µM and the LC50 is 10 µM.

`N#C/C(=C\c1ccc[nH]1)c1ccc(Cl)c(Cl)c1`: in the data set on Haemonchus contortus [1], the LD99 was 12.5 µM and the LC50 came out at 7 µM.

Turning to `O=C(O)C1C(C(=O)NCCCc2ccccc2)[C@H]2CC[C@@H]1O2` (some centres not stated), the GI50 at 72 h in data set [2], in data set [3], in [4], in [5], in data set [6] and in [7] was 10 µM in each case. Besides, the GI50 at 72 h in data set [8], in data set [9] and in data set [10] was 10 µM each time. For the same compound, the inhibition result with Haemonchus contortus [11] was “inactive”.

On to `CCCCNC(=O)C1C(C(=O)O)[C@@H]2CC[C@H]1O2` (some centres not stated), for which the GI50 at 72 h in data set [2], in [3], in data set [4], in data set [5], in data set [6] and in data set [7] was 10 µM each time. Also, the GI50 at 72 h in data set [8], in data set [9] and in [10] was 10 µM each time. Also, the inhibition result in the data set on Haemonchus contortus [11] is “inactive”.

As to `O=C(O)C1C(C(=O)Nc2ccc(Br)cc2)[C@H]2CC[C@@H]1O2` (some centres not stated), the concentration for 50% growth inhibition (GI50) at 72 h in data set [2], in [3], in [4], in data set [5], in data set [6] and in data set [7] was 10 µM in each case. Also, the 50% growth inhibitory concentration (GI50) at 72 h in data set [8], in [9] and in data set [10] was 10 µM in each case. Further, the inhibition result with Haemonchus contortus [11] is “inactive”.

With `N#C/C(=C\c1ccc[nH]1)c1ccccc1`, in the data set with Haemonchus contortus [1], the LD99 is 100 µM and the LC50 stood at 6 µM.

In the case of `CCc1ccccc1NC(=O)C1C(C(=O)O)[C@@H]2CC[C@H]1O2` (some centres not stated), the GI50 at 72 h in data set [2], in [3], in data set [4], in data set [5], in [6] and in [7] was 10 µM in each case. Besides, the GI50 at 72 h in data set [8], in data set [9] and in data set [10] was 10 µM in each case. Moreover, in the data set with Haemonchus contortus [11], the inhibition result was “inactive”.

Regarding `CCCNC(=O)C1C(C(=O)O)[C@@H]2CC[C@H]1O2` (some centres not stated), the GI50 at 72 h in data set [2], in data set [3], in data set [4], in [5], in data set [6] and in [7] was 10 µM each time. The GI50 at 72 h in data set [8], in data set [9] and in data set [10] was 10 µM throughout. Further, the inhibition result in the data set on Haemonchus contortus [11] is “inactive”.

On to `CCCCCCCCCCN1C(=O)[C@@H]2[C@H](C1=O)[C@H]1CC[C@@H]2O1`, for which, in the data set on Haemonchus contortus [1], the LD99 came out at 90 µM and the LC50 worked out at 30 µM.

As for `CCCCCCCCN1C(=O)[C@@H]2[C@H](C1=O)[C@H]1CC[C@@H]2O1`, in the data set on Haemonchus contortus [1], the LD99 stood at 80 µM and the LC50 was 40 µM.

On to `O=C(O)C1C(C(=O)Nc2ccc(CO)cc2)[C@H]2CC[C@@H]1O2` (some centres not stated), for which the GI50 at 72 h in data set [2], in data set [3], in data set [4], in [5], in [6] and in data set [7] was 10 µM in each case. Besides, the GI50 at 72 h in [8], in [9] and in data set [10] was 10 µM in each case. Also, in the data set with Haemonchus contortus [11], the inhibition entry was “inactive”.

For `CCCCCCCCCCNC(=O)C1C(C(=O)O)[C@@H]2CC[C@H]1O2` (some centres not stated), the GI50 at 72 h in data set [2], in data set [3], in [4], in [5], in data set [6] and in [7] was 10 µM each time. The GI50 at 72 h in [8], in [9] and in data set [10] was 10 µM in each case. Further, the inhibition entry in the data set on Haemonchus contortus [11] is “inactive”.
